From PubChem BioAssay (NCI)
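Here, GI50 denotes the concentration required for 50% inhibition of growth. The concentration for full growth arrest is given as TGI.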

What was measured:
Assay in all cases: NCI tumour cell line growth inhibition, 384-well format
RPMI-8226 leukemia = tested on: RPMI-8226 leukemia
NCI-H322M lung = tested on: NCI-H322M lung
786-0 renal = tested on: 786-0 renal
SF-295 CNS = tested on: SF-295 CNS
COLO 205 colon = tested on: COLO 205 colon
SNB-19 CNS = tested on: SNB-19 CNS
MOLT-4 leukemia = tested on: MOLT-4 leukemia
DU-145 prostate = tested on: DU-145 prostate
HCT-15 colon = tested on: HCT-15 colon
IGROV1 ovarian = tested on: IGROV1 ovarian
SF-268 CNS = tested on: SF-268 CNS
MDA-MB-231 breast = tested on: MDA-MB-231 breast
RXF 393 renal = tested on: RXF 393 renal
A549 NSCLC = tested on: A549 NSCLC
UACC-62 melanoma = tested on: UACC-62 melanoma
SK-MEL-5 melanoma = tested on: SK-MEL-5 melanoma
NCI-H226 lung = tested on: NCI-H226 lung
PC-3 prostate = tested on: PC-3 prostate
HL-60(TB) leukemia = tested on: HL-60(TB) leukemia
UO-31 renal = tested on: UO-31 renal
OVCAR-3 ovarian = tested on: OVCAR-3 ovarian
SR leukemia = tested on: SR leukemia
NCI-H460 NSCLC = tested on: NCI-H460 NSCLC
U251 glioblastoma = tested on: U251 glioblastoma
ACHN renal = tested on: ACHN renal
SF-539 CNS = tested on: SF-539 CNS
CAKI-1 renal = tested on: CAKI-1 renal
SK-OV-3 ovarian = tested on: SK-OV-3 ovarian
MDA-MB-435 melanoma = tested on: MDA-MB-435 melanoma
EKVX NSCLC = tested on: EKVX NSCLC
OVCAR-8 ovarian = tested on: OVCAR-8 ovarian
BT-549 breast = tested on: BT-549 breast
OVCAR-5 ovarian = tested on: OVCAR-5 ovarian
TK-10 renal = tested on: TK-10 renal
HOP-62 NSCLC = tested on: HOP-62 NSCLC
T-47D breast = tested on: T-47D breast
MCF7 breast = tested on: MCF7 breast
OVCAR-4 ovarian = tested on: OVCAR-4 ovarian
HOP-92 NSCLC = tested on: HOP-92 NSCLC
NCI-H522 lung = tested on: NCI-H522 lung
SW-620 colon = tested on: SW-620 colon
UACC-257 melanoma = tested on: UACC-257 melanoma
KM12 colon = tested on: KM12 colon
HCC-2998 colon = tested on: HCC-2998 colon
SN12C renal = tested on: SN12C renal
A498 renal = tested on: A498 renal
M14 melanoma = tested on: M14 melanoma
HCT-116 colon = tested on: HCT-116 colon
NCI-H23 lung = tested on: NCI-H23 lung
LOX IMVI melanoma = tested on: LOX IMVI melanoma
NCI/ADR-RES ovarian = tested on: NCI/ADR-RES ovarian
SK-MEL-28 melanoma = tested on: SK-MEL-28 melanoma
MDA-MB-468 breast = tested on: MDA-MB-468 breast
MALME-3M melanoma = tested on: MALME-3M melanoma
SNB-75 CNS = tested on: SNB-75 CNS
HS 578T breast = tested on: HS 578T breast

Question: Which results are given for `C#CCC(Cc1cnc2nc(N)nc(N)c2n1)c1ccc(C(=O)N[C@@H](CCC(=O)O)C(=O)O)cc1` (some centres not stated)?
Answer: GI50 (RPMI-8226 leukemia): < 10 nM; TGI (RPMI-8226 leukemia): < 10 nM; GI50 (NCI-H322M lung): < 10 nM; TGI (NCI-H322M lung): < 10 nM; GI50 (786-0 renal): < 10 nM; TGI (786-0 renal): < 10 nM; GI50 (SF-295 CNS): < 10 nM; TGI (SF-295 CNS): < 10 nM; GI50 (COLO 205 colon): < 10 nM; TGI (COLO 205 colon): < 10 nM; GI50 (SNB-19 CNS): < 10 nM; TGI (SNB-19 CNS): < 10 nM; GI50 (MOLT-4 leukemia): < 10 nM; TGI (MOLT-4 leukemia): < 10 nM; GI50 (DU-145 prostate): < 10 nM; TGI (DU-145 prostate): > 100000 nM; GI50 (HCT-15 colon): < 10 nM; TGI (HCT-15 colon): > 100000 nM; GI50 (IGROV1 ovarian): < 10 nM; TGI (IGROV1 ovarian): < 10 nM; GI50 (SF-268 CNS): < 10 nM; TGI (SF-268 CNS): < 10 nM; GI50 (MDA-MB-231 breast): 905 nM; TGI (MDA-MB-231 breast): 2410 nM; GI50 (RXF 393 renal): < 10 nM; TGI (RXF 393 renal): < 10 nM; GI50 (A549 NSCLC): < 10 nM; TGI (A549 NSCLC): < 10 nM; GI50 (UACC-62 melanoma): < 10 nM; TGI (UACC-62 melanoma): < 10 nM; GI50 (SK-MEL-5 melanoma): < 10 nM; TGI (SK-MEL-5 melanoma): < 10 nM; GI50 (NCI-H226 lung): < 10 nM; TGI (NCI-H226 lung): < 10 nM; GI50 (PC-3 prostate): < 10 nM; TGI (PC-3 prostate): < 10 nM; GI50 (HL-60(TB) leukemia): < 10 nM; TGI (HL-60(TB) leukemia): < 10 nM; GI50 (UO-31 renal): < 10 nM; TGI (UO-31 renal): < 10 nM; GI50 (OVCAR-3 ovarian): < 10 nM; TGI (OVCAR-3 ovarian): < 10 nM; GI50 (SR leukemia): < 10 nM; TGI (SR leukemia): < 10 nM; GI50 (NCI-H460 NSCLC): < 10 nM; TGI (NCI-H460 NSCLC): > 100000 nM; GI50 (U251 glioblastoma): < 10 nM; TGI (U251 glioblastoma): < 10 nM; GI50 (ACHN renal): < 10 nM; TGI (ACHN renal): < 10 nM; GI50 (SF-539 CNS): < 10 nM; TGI (SF-539 CNS): < 10 nM; GI50 (CAKI-1 renal): < 10 nM; TGI (CAKI-1 renal): < 10 nM; GI50 (SK-OV-3 ovarian): < 10 nM; TGI (SK-OV-3 ovarian): < 10 nM; GI50 (MDA-MB-435 melanoma): < 10 nM; TGI (MDA-MB-435 melanoma): < 10 nM; GI50 (EKVX NSCLC): < 10 nM; TGI (EKVX NSCLC): < 10 nM; GI50 (OVCAR-8 ovarian): < 10 nM; TGI (OVCAR-8 ovarian): < 10 nM; GI50 (BT-549 breast): < 10 nM; TGI (BT-549 breast): < 10 nM; GI50 (OVCAR-5 ovarian): < 10 nM; TGI (OVCAR-5 ovarian): < 10 nM; GI50 (TK-10 renal): < 10 nM; TGI (TK-10 renal): < 10 nM; GI50 (HOP-62 NSCLC): < 10 nM; TGI (HOP-62 NSCLC): < 10 nM; GI50 (T-47D breast): < 10 nM; TGI (T-47D breast): < 10 nM; GI50 (MCF7 breast): < 10 nM; TGI (MCF7 breast): > 100000 nM; GI50 (OVCAR-4 ovarian): < 10 nM; TGI (OVCAR-4 ovarian): < 10 nM; GI50 (HOP-92 NSCLC): < 10 nM; TGI (HOP-92 NSCLC): < 10 nM; GI50 (NCI-H522 lung): < 10 nM; TGI (NCI-H522 lung): < 10 nM; GI50 (SW-620 colon): < 10 nM; TGI (SW-620 colon): < 10 nM; GI50 (UACC-257 melanoma): < 10 nM; TGI (UACC-257 melanoma): < 10 nM; GI50 (KM12 colon): < 10 nM; TGI (KM12 colon): > 100000 nM; GI50 (HCC-2998 colon): < 10 nM; TGI (HCC-2998 colon): > 100000 nM; GI50 (SN12C renal): < 10 nM; TGI (SN12C renal): < 10 nM; GI50 (A498 renal): < 10 nM; TGI (A498 renal): < 10 nM; GI50 (M14 melanoma): < 10 nM; TGI (M14 melanoma): < 10 nM; GI50 (HCT-116 colon): < 10 nM; TGI (HCT-116 colon): > 100000 nM; GI50 (NCI-H23 lung): < 10 nM; TGI (NCI-H23 lung): < 10 nM; GI50 (LOX IMVI melanoma): < 10 nM; TGI (LOX IMVI melanoma): < 10 nM; GI50 (NCI/ADR-RES ovarian): < 10 nM; TGI (NCI/ADR-RES ovarian): < 10 nM; GI50 (SK-MEL-28 melanoma): < 10 nM; TGI (SK-MEL-28 melanoma): < 10 nM; GI50 (MDA-MB-468 breast): < 10 nM; TGI (MDA-MB-468 breast): < 10 nM; GI50 (MALME-3M melanoma): < 10 nM; TGI (MALME-3M melanoma): < 10 nM; GI50 (SNB-75 CNS): < 10 nM; TGI (SNB-75 CNS): < 10 nM; GI50 (HS 578T breast): < 10 nM; TGI (HS 578T breast): < 10 nM
